Reference: US20100144779A1, “Marine Alkalod Makaluvamines and Derivatives Thereof” (THE UAB RESEARCH FOUNDATION, priority 2007, published 2010)

How the values were obtained:
Assay in all cases: NCI60 cell line screen (SRB)
Type in all cases: cell-based, human
MOLT-4 = settings: MOLT-4, Leukemia, 48 h
Protocol: (§1) This panel implements the NCI60 cell line screen, including leukemia, non-small cell lung cancer, colon cancer, central nervous system cancer, melanoma, ovarian cancer, renal cancer, prostate cancer and breast cancer. The cell lines tested are specified in Table 3.
(§2) Generally, the human tumor cell lines of the cancer screening panel are grown in RPMI 1640 medium containing 5% fetal bovine serum and 2 mM L-glutamine. For a typical screening experiment, cells are inoculated into 96 well microtiter plates in 100 μL at plating densities ranging from 5,000 to 40,000 cells/well depending on the doubling time of individual cell lines. After cell inoculation, the microtiter plates are incubated at 37° C., 5% CO2, 95% air and 100% relative humidity for 24 h prior to addition of experimental drugs. After 24 h, two plates of each cell line are fixed in situ with TCA, to represent a measurement of the cell population for each cell line at the time of drug addition (Tz). Experimental drugs are solubilized in dimethyl sulfoxide at 400-fold the desired final maximum test concentration and stored frozen prior to use. At the time of drug addition, an aliquot of frozen concentrate is thawed and diluted to twice the desired final maximum test concentration with complete medium containing 50 μg/ml gentamicin. Additional four, 10-fold or ½ log serial dilutions are made to provide a total of five drug concentrations plus control. Aliquots of 100 μl of these different drug dilutions are added to the appropriate microtiter wells already containing 100 μl of medium, resulting in the required final drug concentrations.
(§3) Following drug addition, the plates are incubated for an additional 48 h at 37° C., 5% CO2, 95% air, and 100% relative humidity. For adherent cells, the assay is terminated by the addition of cold TCA. Cells are fixed in situ by the gentle addition of 50 μl of cold 50% (w/v) TCA (final concentration, 10% TCA) and incubated for 60 minutes at 4° C. The supernatant is discarded, and the plates are washed five times with tap water and air dried. Sulforhodamine B (SRB) solution (100 μl) at 0.4% (w/v) in 1% acetic acid is added to each well, and plates are incubated for 10 minutes at room temperature. After staining, unbound dye is removed by washing five times with 1% acetic acid and the plates are air dried. Bound stain is subsequently solubilized with 10 mM trizma base, and the absorbance is read on an automated plate reader at a wavelength of 515 nm. For suspension cells, the methodology is the same except that the assay is terminated by fixing settled cells at the bottom of the wells by gently adding 50 μl of 80% TCA (final concentration, 16% TCA). Using the seven absorbance measurements (time zero, Tz, control growth, (control), and test growth in the presence of drug at the five concentration levels (Ti)), the percentage growth is calculated at each of the drug concentrations levels. Percentage growth inhibition is calculated as:
(§4) [(Ti−Tz)/(C−Tz)]×100 for concentrations for which Ti>/=Tz
(§5) [(Ti−Tz)/Tz]×100 for concentrations for which Ti<Tz.

OVCAR8 = settings: OVCAR8, Ovarian Cancer, 48 h
Protocol: as §1, §2, §3, §4, §5

HT-29 = settings: HT-29, Colon Cancer, 48 h
Protocol: as §1, §2, §3, §4, §5

HOP-62 = settings: HOP-62, Non-Small Cell Lung Cancer, 48 h
Protocol: as §1, §2, §3, §4, §5

SK-MEL-5 = settings: SK-MEL-5, Melanoma, 48 h
Protocol: as §1, §2, §3, §4, §5

HS 578T = settings: Breast Cancer, 48 h
Protocol: as §1, §2, §3, §4, §5

MDA-MB-435 = settings: MDA-MB-435, Breast Cancer, 48 h
Protocol: as §1, §2, §3, §4, §5

EKVX = settings: Non-Small Cell Lung Cancer, 48 h
Protocol: as §1, §2, §3, §4, §5

SN12C = settings: Renal Cancer, 48 h
Protocol: as §1, §2, §3, §4, §5

UACC-257 = settings: UACC-257, Melanoma, 48 h
Protocol: as §1, §2, §3, §4, §5

PC-3 = settings: PC-3, Prostate Cancer, 48 h
Protocol: as §1, §2, §3, §4, §5

MALME-3M = settings: Melanoma, 48 h
Protocol: as §1, §2, §3, §4, §5

COLO 205 = settings: COLO 205, Colon Cancer, 48 h
Protocol: as §1, §2, §3, §4, §5

A498 = settings: A498, Renal Cancer, 48 h
Protocol: as §1, §2, §3, §4, §5

T-47D = settings: Breast Cancer, 48 h
Protocol: as §1, §2, §3, §4, §5

CCRF-CEM = settings: Leukemia, 48 h
Protocol: as §1, §2, §3, §4, §5

NCIH332M = settings: Non-Small Cell Lung Cancer, 48 h
Protocol: as §1, §2, §3, §4, §5

BT-459 = settings: BT-459, Breast Cancer, 48 h
Protocol: as §1, §2, §3, §4, §5

HCT-15 = settings: HCT-15, Colon Cancer, 48 h
Protocol: as §1, §2, §3, §4, §5

SF-268 = settings: SF-268, CNS Cancer, 48 h
Protocol: as §1, §2, §3, §4, §5

HCT-116 = settings: HCT-116, Colon Cancer, 48 h
Protocol: as §1, §2, §3, §4, §5

LOX IMVI = settings: Melanoma, 48 h
Protocol: as §1, §2, §3, §4, §5

DU-145 = settings: DU-145, Prostate Cancer, 48 h
Protocol: as §1, §2, §3, §4, §5

SW-620 = settings: SW-620, Colon Cancer, 48 h
Protocol: as §1, §2, §3, §4, §5

KM12 = settings: KM12, Colon Cancer, 48 h
Protocol: as §1, §2, §3, §4, §5

NCI-H460 = settings: NCI-H460, Non-Small Cell Lung Cancer, 48 h
Protocol: as §1, §2, §3, §4, §5

Work on `CNC1=CC2=NCCc3c[nH]c(c32)C1=O` [Compound 4a] yielded a GI50 (MOLT-4) of 1.97 µM, a GI50 (OVCAR8) of 3.19 µM and a GI50 (HT-29) of 2.54 µM. It also gave a GI50 (HOP-62) of 1.28 µM, a GI50 (SK-MEL-5) of 1.45 µM and a GI50 (HS 578T) of 10.2 µM. The GI50 (MDA-MB-435) was 1.8 µM, the GI50 (EKVX) was 2.2 µM and the GI50 (SN12C) was 3.06 µM. The GI50 (UACC-257) was 2 µM, the GI50 (PC-3) was 3.61 µM and the GI50 (MALME-3M) was 1.21 µM. For the same compound, the GI50 (COLO 205) was 1.75 µM, the GI50 (A498) was 20.7 µM and the GI50 (T-47D) was 3.5 µM. It also gave a GI50 (CCRF-CEM) of 2.97 µM, a GI50 (NCIH332M) of 2.89 µM and a GI50 (BT-459) of 7.38 µM. The GI50 (HCT-15) was 5.09 µM, the GI50 (SF-268) was 2.09 µM and the GI50 (HCT-116) was 2.94 µM. For the same compound, the GI50 (LOX IMVI) was 3.43 µM, the GI50 (DU-145) was 2.29 µM and the GI50 (SW-620) was 3.1 µM. It also gave a GI50 (KM12) of 3.83 µM and a GI50 (NCI-H460) of 2.16 µM.
Work on `O=C(O)C(F)(F)F.O=C1C(NCc2ccc(F)cc2)=CC2=NCCc3c[nH]c1c32` [Compound 28] yielded a GI50 (MOLT-4; Homo sapiens) of 0.793 µM, a GI50 (OVCAR8; Homo sapiens, OVCAR-8) of 1.97 µM and a GI50 (HT-29; Homo sapiens) of 0.596 µM. It also gave a GI50 (HOP-62; Homo sapiens) of 3.79 µM, a GI50 (SK-MEL-5; Homo sapiens) of 0.325 µM and a GI50 (HS 578T; Homo sapiens) of 44 µM. It also gave a GI50 (MDA-MB-435; Homo sapiens) of 1.75 µM, a GI50 (EKVX; Homo sapiens) of 0.453 µM and a GI50 (SN12C; Homo sapiens) of 1.95 µM. For the same compound, the GI50 (UACC-257; Homo sapiens) was 0.189 µM, the GI50 (PC-3; Homo sapiens) was 1.57 µM and the GI50 (MALME-3M; Homo sapiens) was 0.208 µM. For the same compound, the GI50 (COLO 205; Homo sapiens) was 0.365 µM, the GI50 (A498; Homo sapiens) was 3.11 µM and the GI50 (T-47D; Homo sapiens, T47D) was 0.633 µM. The GI50 (CCRF-CEM; Homo sapiens) was 1.43 µM, the GI50 (NCIH332M; Homo sapiens, NCI-H332M) was 1.17 µM and the GI50 (BT-459; Homo sapiens) was 3.14 µM. For the same compound, the GI50 (HCT-15; Homo sapiens) was 1.48 µM, the GI50 (SF-268; Homo sapiens) was 1.66 µM and the GI50 (HCT-116; Homo sapiens) was 0.715 µM. It also gave a GI50 (LOX IMVI; Homo sapiens) of 1.57 µM, a GI50 (DU-145; Homo sapiens) of 1.08 µM and a GI50 (SW-620; Homo sapiens) of 1.82 µM. The GI50 (KM12; Homo sapiens) was 2.02 µM and the GI50 (NCI-H460; Homo sapiens) was 0.816 µM.
In the case of `O=C1C(NCc2ccccc2)=CC2=NCCc3c[nH]c1c32` [Compound 4c], the GI50 (MOLT-4) was 0.315 µM, the GI50 (OVCAR8) was 2.08 µM and the GI50 (HT-29) was 0.488 µM. For the same compound, the GI50 (HOP-62) was 3.7 µM, the GI50 (SK-MEL-5) was 0.462 µM and the GI50 (HS 578T) was 5.2 µM. It also gave a GI50 (MDA-MB-435) of 2.03 µM, a GI50 (EKVX) of 0.271 µM and a GI50 (SN12C) of 1.89 µM. The GI50 (UACC-257) was 0.315 µM, the GI50 (PC-3) was 1.54 µM and the GI50 (MALME-3M) was 0.3 µM. For the same compound, the GI50 (COLO 205) was 0.378 µM, the GI50 (A498) was 16.5 µM and the GI50 (T-47D) was 0.523 µM. For the same compound, the GI50 (CCRF-CEM) was 0.9 µM, the GI50 (NCIH332M) was 0.628 µM and the GI50 (BT-459) was 4.58 µM. It also gave a GI50 (HCT-15) of 1.39 µM, a GI50 (SF-268) of 2.83 µM and a GI50 (HCT-116) of 0.306 µM. For the same compound, the GI50 (LOX IMVI) was 1.81 µM, the GI50 (DU-145) was 1.79 µM and the GI50 (SW-620) was 1.07 µM. It also gave a GI50 (KM12) of 2.06 µM and a GI50 (NCI-H460) of 1.51 µM.
`O=C(O)C(F)(F)F.O=C1C(NCCc2ccc3c(c2)OCO3)=CC2=NCCc3c[nH]c1c32` [Compound 6] gave a GI50 (MOLT-4; Homo sapiens) of 2.02 µM, a GI50 (OVCAR8; Homo sapiens, OVCAR-8) of 1.62 µM and a GI50 (HT-29; Homo sapiens) of 2.07 µM. The GI50 (HOP-62; Homo sapiens) was 2.5 µM, the GI50 (SK-MEL-5; Homo sapiens) was 0.965 µM and the GI50 (HS 578T; Homo sapiens) was 2.86 µM. The GI50 (MDA-MB-435; Homo sapiens) was 1.89 µM, the GI50 (EKVX; Homo sapiens) was 1.96 µM and the GI50 (SN12C; Homo sapiens) was 2.69 µM. It also gave a GI50 (UACC-257; Homo sapiens) of 2.97 µM, a GI50 (PC-3; Homo sapiens) of 5.93 µM and a GI50 (MALME-3M; Homo sapiens) of 0.343 µM. It also gave a GI50 (COLO 205; Homo sapiens) of 1.02 µM, a GI50 (A498; Homo sapiens) of 6.03 µM and a GI50 (T-47D; Homo sapiens, T47D) of 2.97 µM. The GI50 (CCRF-CEM; Homo sapiens) was 2.97 µM, the GI50 (NCIH332M; Homo sapiens, NCI-H332M) was 2.82 µM and the GI50 (BT-459; Homo sapiens) was 3.07 µM. It also gave a GI50 (HCT-15; Homo sapiens) of 1.86 µM, a GI50 (SF-268; Homo sapiens) of 3.66 µM and a GI50 (HCT-116; Homo sapiens) of 2.41 µM. It also gave a GI50 (LOX IMVI; Homo sapiens) of 1.68 µM, a GI50 (DU-145; Homo sapiens) of 1.35 µM and a GI50 (SW-620; Homo sapiens) of 3.44 µM. For the same compound, the GI50 (KM12; Homo sapiens) was 2.29 µM and the GI50 (NCI-H460; Homo sapiens) was 1.01 µM.
